{"source": "patent US6610676B1", "about": "“Nitrate esters of corticoid compounds and pharmaceutical applications thereof” (Nicox S.A., priority 1996, dated 2003)", "key": {"[1]": {"tested_on": "nitroxysynthetase", "assay": "LPS-induced nitroxysynthetase activity in rat neutrophils and stomach", "assay_type": "in vivo, rats", "details": "10 mg/kg i.p., LPS 5 mg/kg i.v., 4 h; compared to vehicle group (vehicle = 100)"}, "[2]": {"tested_on": "Male Sprague-Dawley rats", "assay": "Gastric tolerability (safety)", "assay_type": "in vivo", "details": "24 h, lesion scale 0 = absent to 4 = severe and numerous ulcers", "description": "Male Sprague-Dawley rats fasted for 24 hours were treated with 5 to 10 mg/kg of intraperitoneal hydrocortisone or HCN.\nTwenty-four hours later the animals were sacrified, the stomach was removed and tissue was grossly examined for the presence of lesions as described by Del Soldato et al.: “The influence of fasting and cimetidine on the relationship between ulcerogenic and anti-inflammatory properties of […]”, Br.J.Pharmacol. 67, 33-37, 1979. The degree of severity of the disease was evaluated according to common methods and expressed as arbitrary values."}, "[3]": {"tested_on": "Male Wistar rats", "assay": "Angiostatic activity, rat sponge model, 133Xe clearance", "assay_type": "in vivo", "details": "for SPLEEN weight / THYMUS weight: 10 mg/kg s.c. day 1 to 13, day 14; for 133Xe clearance (%): 10 mg/kg s.c. day 1 to 13, measured at day 14, clearance for 6 minutes as % of initial value"}, "[4]": {"tested_on": "conscious Long Evans rats", "assay": "Cardiovascular parameters in conscious rats", "assay_type": "in vivo", "details": "10 mg/kg s.c., 4 h after treatment; for BLOOD PRESSURE: compared to vehicle group (101 ± 2 mm Hg); for HEART RATE (%): compared to vehicle group (324 ± 7 beats per minute)", "description": "The effect of the test products on some cardiovascular parameters was studied in conscious Long Evans rats (350 to 450 g) which were appropriately monitored, as described by Gardiner et al.: “Influence of dexamethasone on the regional haemodynamic responses to lipopolysaccharide in conscious rats: effect of the non-selective endothelin antagonist: SB 209670”, Br.J. Pharmacology 117, 49P, 1996. The animals were treated with the vehicle (physiologic saline solution, 0,9% sodium chloride, s.c.) subcutaneous hydrocortisone or HCN (10 mg/kg). Heart rate and blood pressure were recorded 4 hours after treatment."}, "[5]": {"tested_on": "male rats of Lewis strain", "assay": "Antiarthritic activity, adjuvant arthritis induced by Mycobacterium butyricum", "assay_type": "in vivo", "details": "day 21, inhibition of arthritis score vs vehicle group"}, "[6]": {"tested_on": "parietal bone from rat foetus", "assay": "Bone toxicity, bone tissue grown in vitro", "assay_type": "cell-based", "details": "10 nmol (table), 96 h incubation, compared to initial value", "description": "Bone tissues (parietal bone from rat foetus) grown in vitro according to the method described by Doherty et al. (“The effect of glucocorticoids on osteoblast function. The effect of corticosterone on osteoblast, expression of beta-I integrins”, Journal of Bone and Joint Surgery, Series A77/3, 396-404, 1995) was used. […]\nNinety six hours later calcium content and bone dry weight were measured."}, "[7]": {"tested_on": "mice of the Swiss strain", "assay": "Acute toxicity study, single oral dose", "assay_type": "in vivo", "details": "single oral dose 50 mg/kg, 10 Swiss mice, 14 days observation", "source_text": "The acute toxicity of the product from Example 1A was roughly evaluated by orally administering a single dose of substance to a group of 10 mice of the Swiss strain.\nDeath incidence and appearance of toxic symptoms were observed during a period of 14 days after the compound administration."}}, "note": "Marks after values point to notes of the source that are not given here.", "data": [{"smiles": "C[C@]12CCC(=O)C=C1CC[C@@H]1[C@@H]2[C@@H](O)C[C@@]2(C)[C@H]1CC[C@]2(O)C(=O)CO", "note": "[HYDROCORTISONE, hydrocortisone, reference compound]", "values": [{"measurement": "NITROXYSYNTHETASE ACTIVITY", "setting": "[1]", "result": "55* per cent"}, {"measurement": "GASTRIC TOLERABILITY", "setting": "[2]; 5 mg/kg i.p.", "result": 2.0, "unit": "arbitrary values"}, {"measurement": "GASTRIC TOLERABILITY", "setting": "[2]; 10 mg/kg i.p.", "result": 3.5, "unit": "arbitrary values"}, {"measurement": "SPLEEN weight", "setting": "[3]", "result": "642 ± 32", "unit": "mg"}, {"measurement": "THYMUS weight", "setting": "[3]", "result": "185 ± 17", "unit": "mg"}, {"measurement": "133Xe clearance (%)", "setting": "[3]", "result": 33, "unit": "%"}, {"measurement": "BLOOD PRESSURE", "setting": "[4]", "result": "115* per-cent"}, {"measurement": "HEART RATE (%)", "setting": "[4]", "result": "89* %"}, {"measurement": "ANTIARTHRITIC ACTIVITY (%)", "setting": "[5]; 5 mg/kg i.p.", "result": 40, "unit": "%"}, {"measurement": "ANTIARTHRITIC ACTIVITY (%)", "setting": "[5]; 10 mg/kg i.p.", "result": 55, "unit": "%"}, {"measurement": "Calcium Δ%", "setting": "[6]", "result": 70, "unit": "° %"}, {"measurement": "DRY TISSUE WEIGHT Δ%", "setting": "[6]", "result": 95, "unit": "° %"}]}, {"smiles": "C[C@]12CCC(=O)C=C1CC[C@@H]1[C@@H]2[C@@H](O)C[C@@]2(C)[C@H]1CC[C@]2(O)C(=O)COC(=O)CCCO[N+](=O)[O-]", "note": "[HCN, Hydrocortisone 4-Nitroxybutanoate]", "values": [{"measurement": "NITROXYSYNTHETASE ACTIVITY", "setting": "[1]", "result": "62* per cent"}, {"measurement": "GASTRIC TOLERABILITY", "setting": "[2]; 5 mg/kg i.p.", "result": "0.5* arbitrary values"}, {"measurement": "GASTRIC TOLERABILITY", "setting": "[2]; 10 mg/kg i.p.", "result": "1.2* arbitrary values"}, {"measurement": "SPLEEN weight", "setting": "[3]", "result": "673 ± 38", "unit": "mg"}, {"measurement": "THYMUS weight", "setting": "[3]", "result": "297 ± 31", "unit": "mg"}, {"measurement": "133Xe clearance (%)", "setting": "[3]", "result": "22* %"}, {"measurement": "BLOOD PRESSURE", "setting": "[4]", "result": 103, "unit": "per-cent"}, {"measurement": "HEART RATE (%)", "setting": "[4]", "result": 98, "unit": "%"}, {"measurement": "Acute toxicity (death incidence and toxic symptoms)", "setting": "[7]", "result": "no sign of apparent toxicity"}, {"measurement": "ANTIARTHRITIC ACTIVITY (%)", "setting": "[5]; 5 mg/kg i.p.", "result": 45, "unit": "%"}, {"measurement": "ANTIARTHRITIC ACTIVITY (%)", "setting": "[5]; 10 mg/kg i.p.", "result": 62, "unit": "%"}, {"measurement": "Calcium Δ%", "setting": "[6]", "result": 287, "unit": "%"}, {"measurement": "DRY TISSUE WEIGHT Δ%", "setting": "[6]", "result": 149, "unit": "%"}]}]}
